Measured values as given in US9572345B2, “Pesticidal composition in the form of aqueous emulsion” (Sumitomo Chemical Company, Limited, priority 2012, dated 2017).

Assay: Retention rate of the agriculturally active ingredient after xenon light irradiation (neat film on petri dish)
Format: physicochemical
Details: xenon light (290 nm cutoff), intensity 0.68 W/m^2 at 340 nm, 8 hours, 35° C.; 5 mg air-dried on glass petri dish; HPLC
Method: A method for the calculation of a retention rate of the agriculturally active ingredient defined above is more specifically as follows. First, 250 mg of the agriculturally active ingredient is dissolved in 50 ml of a solvent such as acetone, which can sufficiently dissolve the agriculturally active ingredient and also has high volatility, and 1 mL of the solution is added to a glass petri dish having a diameter of 6 cm using a one-mark pipette, spread entirely over the petri dish, and then air-dried at room temperature. The petri dish is covered with a lid made of quartz glass and then set in a weathering tester (manufactured by Q-Lab Corporation under the trade name of Q-SUN Xenon Accelerated Weathering Tester, Model Xe-3) equipped with a borosilicate filter (manufactured by Q-Lab Corporation under the trade name of Daylight-BB Optical Filter) attached thereto. After irradiation with xenon light under the conditions of an intensity at 340 nm of 0.68 W/m^2 and a temperature of 35° C. (35° C. as measured by an insulated black panel thermometer) for 8 hours, the amount of the agriculturally active ingredient remaining on the petri dish is determined by a known determination method such as high-performance liquid chromatography. It is possible to determine a retention rate by calculating as the weight percentage relative to 5 mg of the agriculturally active ingredient used above. […]

- retention rate after irradiation with xenon light: 28.1%
Compound: C=CCSC(=O)n1c(N)c(-c2ccccc2C)c(=O)n1C(C)C [fenpyrazamine]
